Source: a melting point compilation (Tetko et al.; mined from patent text by program, amines drawn as free bases though some values may be those of a salt)

In the case of `N#Cc1cnc2sc(-c3ccccc3)cc2c1Nc1cccc2[nH]ccc12`, the melting point is reported as > 245 °C.
Compound `CCOCc1c[nH]c(=O)c(N)c1Sc1cc(C)cc(C)c1` has a melting point of 149 to 150 °C.
`Nc1nc(N)c(-c2cc(Cl)cc(Cl)c2Cl)c(C(Cl)(Cl)Cl)n1` showed a melting point of 226 to 227 °C.
With `Oc1cc(-c2c(-c3ccccc3)nn3ccccc23)n[nH]1` the melting point was > 300 °C.
`CC(C)c1ccc(C(=O)CCc2ccccc2)c(C(C)C)c1OS(N)(=O)=O` gave a melting point of 121 to 124 °C.
In the case of `C#Cc1c(O)c(C)c(C)c(O)c1C#C`, the melting point is reported as 152 °C.
In the case of `COc1cc(Nc2nc(-c3ccccc3)cs2)ccc1-c1cnco1`, the melting point is reported as 193 to 195 °C.
With `CC(C)(C)OCC1CNC(=O)O1` (configuration not stated) the melting point was 57 to 65 °C.
`CCCCc1nc(SC)c(C(=O)OCC)n1Cc1cccc(-c2ccc(S(=O)(=O)NC#N)cc2)c1` showed a melting point of 120 °C.
`CN(Cc1ccccc1)C(=N)N[N+](=O)[O-]` gave a melting point of 103 to 107 °C.
Work on `CCCCc1nc2cc(Cl)cc(C(=O)O)c2n1Cc1ccccc1Cl` yielded a melting point of 261 to 262 °C.
In the case of `CCCCn1c(=O)c2cn(S(=O)(=O)CCCCl)nc2n(CCCC)c1=O`, the melting point is reported as 102 to 103 °C.
Work on `CC1CCNC(=C[N+](=O)[O-])N1c1ccc(Cl)nc1` (configuration not stated) yielded a melting point of 184 °C.
`CN1C(C)(C)CC(OC(=O)CCC(C)(c2ccc(O)c(C(C)(C)C)c2)c2ccc(O)c(C(C)(C)C)c2)CC1(C)C` showed a melting point of 203 °C.
With `COc1ccc([C@]2(C)Cc3cc(OC)ccc3[C@@H]2CCC2OCCCO2)cc1` (racemic) the melting point was 86 to 88 °C.
`CNc1nc(Cl)nc2c1ncn2C1OC(CO)C(O)C1O` (configuration not stated) gave a melting point of 224 to 225 °C.
Work on `CC(C)(C(=O)c1cccs1)C(=O)c1cccs1` yielded a melting point of 153 to 156 °C.
Compound `O=C(O)c1ccc(C(=O)/C=C/c2ccc(-c3nccs3)cc2)cc1` has a melting point of 232 to 235 °C.
For `CNC(=O)c1cc(-c2ccc(OC)cc2)nn(CC#N)c1=O`, the melting point was 153 to 155 °C.
For `O=C(Nc1cccc(S(=O)(=O)NC2CC2)c1)c1cnn2c(C(F)(F)F)cc(-c3ccc(C(F)(F)F)cc3)nc12`, the melting point was 232 °C.
Compound `O=C1CC2Cc3ccccc3N2CCN1` (configuration not stated) has a melting point of 186 to 188 °C.
`COc1ccc(C(=O)C(=O)c2ccc(-c3ccc(F)cc3)s2)cc1C` showed a melting point of 165 °C.
In the case of `O=NN1CCCSc2ccccc21`, the melting point is reported as 85 to 86 °C.
With `CC(C)N(C(=O)c1cc2ccccc2c(-c2ccccc2Cl)n1)C(C)C` the melting point was 161 °C.
For `Cc1nnc2n1-c1ccc(N)cc1C(c1ccccc1F)=NC2(C)C`, the melting point was 294 °C.
`Fc1cccc(COc2ccc(Nc3ncnc4cc(C#Cc5nccs5)sc34)cc2Cl)c1` gave a melting point of 235 °C.
In the case of `CCCCc1nc(SC)cn1Cc1ccc(-c2ccccc2S(=O)(=O)N=CN(C)C)cc1`, the melting point is reported as 148 °C.
For `CS(=O)(=O)c1ccc(-c2cnn(CC(F)(F)F)c(=O)c2NCCCO)cc1`, the melting point was 152 to 154 °C.
For `CC(C)(C)NC(=O)Nc1nc2nc(N)ncc2cc1-c1c(F)cccc1F`, the melting point was > 300 °C.
For `O=C1N(N2CCCCC2)c2ccccc2C1(Cc1ccccc1)c1ccccc1` (configuration not stated), the melting point was 114 to 116 °C.
Work on `O=C(N[C@H](Cc1ccc(C(F)(F)F)cc1)[C@@H](O)c1ccc(F)cc1)c1cccc2cccnc12` (racemic) yielded a melting point of 83 to 84 °C.
For `Cc1nc(N2CCN(CC3(C#N)C=CC=CC3)C2=O)sc1C(=O)NCc1ccccc1` (configuration not stated), the melting point was 176 to 178 °C.
Work on `O=C(CCCNC(=O)c1ccc(OC(F)(F)F)cc1)CCCNC(=O)c1ccc(OC(F)(F)F)cc1` yielded a melting point of 151 to 152 °C.
Compound `CC1(C)OC[C@H]([C@@H](CS(=O)(=O)c2ccc(Oc3ccc(Cl)cc3)cc2)N(O)C=O)O1` has a melting point of 157 to 158 °C.
`COc1ccc(Oc2ncc(Br)cn2)cc1` gave a melting point of 92 °C.
`COC(=O)c1nc(-c2ccc(O)nc2)cc(N)c1Cl` showed a melting point of 251 to 252 °C.
For `O=C(C1CCc2nc[nH]c2C1)N1CCc2ccccc21` (configuration not stated), the melting point was 175 to 178 °C.
In the case of `CCOC(=O)NC1=C(C(=O)OCC)CCC1`, the melting point is reported as 49 to 51 °C.
For `S=C(Nc1ccc(Cl)cc1)NC1CC2C3CC4C2C4C13` (configuration not stated), the melting point was 168 to 170 °C.
`O=C(O)c1ccccc1C(=O)NCCN1CCN(CCOC(c2ccccc2)c2ccccc2)CC1` gave a melting point of 45 °C.
Work on `COc1cc2nc(N3CCN(C(=O)C=Cc4ccccn4)CC3)nc(N)c2cc1OC` yielded a melting point of 235 to 237 °C.
For `COc1cc(OC)nc(NC(=O)NS(=O)(=O)c2ccccc2C2=NOCCO2)n1`, the melting point was 189 °C.
Work on `O=C1c2cccc3c2N(CC3)c2ccc(Br)cc2N1CC#CCN1CCCC1` yielded a melting point of 121 to 122 °C.
In the case of `CC(=O)c1ccc2ccc3c(c2c1)C(CCl)CN3C(=O)OC(C)(C)C` (configuration not stated), the melting point is reported as 98 to 100 °C.
Work on `COC(=O)C(CC(=O)N1CCOCC1)Oc1ccccc1` (configuration not stated) yielded a melting point of 83 to 84 °C.
With `O=C1c2cc([N+](=O)[O-])ccc2CCn2cccc21` the melting point was 190 to 192 °C.
Compound `CCCCCCCCOc1ccc(-c2ccc(C(C)OC(=O)CCC)cc2)cc1` (single isomer, unassigned; (+)) has a melting point of 56.9 °C.
In the case of `Cc1nc(-n2ccc(C(=O)Nc3ccccc3)cc2=O)sc1C(=O)NCc1ccccc1`, the melting point is reported as 243 to 245 °C.
In the case of `NC(=NCC(F)(F)F)Nc1ccnc(OCCCCO)n1.[H][H]`, the melting point is reported as 189 to 190 °C.
With `NS(=O)(=O)Oc1ccc2c(c1)S(=O)(=O)N=C2C1CCCCC1` the melting point was 170 °C.
In the case of `COC(=O)c1nc(N(C)C)ccc1OCc1ccccc1`, the melting point is reported as 71.5 to 73 °C.
With `COc1ccc(-c2nc(N3CCOCC3)c3c(C)c(C#N)sc3n2)cc1OC` the melting point was 194 to 196 °C.
Work on `CC(C)(C)OC(=O)NCc1cc([N+](=O)[O-])ccc1Cl` yielded a melting point of 77 °C.
In the case of `O=C1Cc2ccc(-c3ccccc3)cc2O1`, the melting point is reported as 109 to 110 °C.
Work on `CCCCOc1c(CNC(=O)OC(C)(C)C)n(CC(C)(C)C)c(=O)c2ccc(C=O)cc12` yielded a melting point of 149 to 150 °C.
`CCCN1CC(C(=O)OC)CC2c3cccc4[nH]cc(c34)CC21` (configuration not stated) showed a melting point of 202 to 204 °C.
`CCOc1ccc2ccccc2c1-c1c(OCC)ccc2ccccc12` showed a melting point of 92 °C.
Work on `Cc1c2n(c3ccc(Br)cc13)CCC(Br)C2=O` (configuration not stated) yielded a melting point of 156 °C.
For `Cc1ccnc(-c2ccc(CBr)cc2)n1`, the melting point was 104 to 106 °C.
For `O=C(Nc1ccc(OCCO)cc1)c1ccc(N2CCNCC2)cc1`, the melting point was > 260 °C.
For `C[Si](C)(C)O[C@@]1(C(F)(F)F)OCN(C(=O)OCc2ccccc2)[C@H]1Cc1ccccc1`, the melting point was 98 to 101 °C.
In the case of `OCC1OC(c2c(Cl)c(Cl)cc3nc(Cl)cn23)C(O)C1O` (configuration not stated), the melting point is reported as 267 to 268 °C.
In the case of `COc1cc(N)ccc1C(=O)O`, the melting point is reported as 144 to 146 °C.
`COc1cccnc1CCCCNc1nc(=O)c(C(O)c2ccc(C)nc2)c[nH]1` (configuration not stated) showed a melting point of 82 °C.
`Cc1cccc2[nH]cnc12` showed a melting point of 141 to 145 °C.
In the case of `NC(=O)Cc1cccc(Cn2ccc(OCc3ccc(F)cc3F)c(Br)c2=O)c1`, the melting point is reported as 164 to 167 °C.
In the case of `OC1CSC(Oc2cccc(-c3cnccn3)c2)C(O)C1O` (configuration not stated), the melting point is reported as 206 to 209 °C.
For `COC(CNC(=S)N1CCN(c2ccc(O)cc2)CC1)OC`, the melting point was 161 °C.
`COc1ccc(CCC(=O)C2C(=O)NC(=O)NC2=O)cc1` gave a melting point of 248 to 250 °C.
With `CC#CC1(O)CCC2C3CCC4=CC(=O)CCC4C3C(=CF)CC21C` (configuration not stated) the melting point was 148 °C.
`COC(=O)c1cccc(-c2ccccc2OC)c1` showed a melting point of 92 to 93 °C.
For `O=C(N[C@@H](Cc1ccccc1)C(=O)O)OCC(Cl)(Cl)Cl`, the melting point was 126 °C.
With `CNNc1ncn(-c2ccccc2)c(=O)n1` the melting point was 219 °C.
In the case of `CC(Cc1ccc(-c2ccc(Cl)cc2)cc1Cl)NC(=O)c1cn(C)nc1C(F)F` (configuration not stated), the melting point is reported as 96 to 98 °C.
With `COc1cc2c(cc1OC)-c1c(Cl)nc3ccccc3c1C2=O` the melting point was 132 to 133 °C.
In the case of `COc1ccc2c(C(=O)c3ccc(OC4CCCCC4N(C)C)cc3)c(-c3ccc(OCCN4CCCC4)cc3)sc2c1` (configuration not stated), the melting point is reported as 61 to 64 °C.
Compound `CCCCCCCCc1c(CCCCCCCC)c2cc(Br)sc2c2sc(Br)cc12` has a melting point of 63.8 to 65.2 °C.
With `CC(=O)c1ccc(OC2SCC(O)C(O)C2O)cc1` (configuration not stated) the melting point was 195 to 198 °C.
Compound `COC(=O)c1ccc(-n2cccc2C=O)cc1` has a melting point of 103 to 105 °C.
Compound `C[C@@H](n1cnc2ccc(Cl)cc2c1=O)[C@](O)(Cn1cncn1)c1ccc(F)cc1F` has a melting point of 188 to 189 °C.
In the case of `C=CCn1c(=O)c2c(nc(/C=C/c3cc(OC)c(OC(C)=O)c(OC)c3)n2C)n(CC=C)c1=O`, the melting point is reported as 220 to 221 °C.
Compound `CCc1cc2c(cc1CC)C(=CC#N)OC2=O` has a melting point of 147 to 158 °C.
With `CC(C)(C)OC(=O)NCCOc1noc2ccccc12` the melting point was 106 to 107 °C.
Work on `CCOP(=O)(CC(=O)N1CCc2ccccc21)OCC` yielded a melting point of 97 to 99 °C.
Work on `Cc1nnc2n1-c1sc(CC(=O)O)cc1C(c1ccccc1Cl)=NC2C` (configuration not stated) yielded a melting point of 222 to 225 °C.
`CCCc1c(OCCCCCOc2ccccc2CCC(=O)O)ccc2c1OCC2=O` showed a melting point of 101 to 102 °C.
Work on `CCC(O)(c1ccc(O)cc1)c1cccc(Cl)c1` (configuration not stated) yielded a melting point of 132 to 134 °C.
In the case of `CC(C)(C)OC(=O)[C@@H]1C[C@H](C(=O)OC(C)(C)C)N1`, the melting point is reported as 47 to 48.5 °C.
`C#CCC(CC#C)(C(=O)NO)S(=O)(=O)c1ccc(OC)cc1` showed a melting point of 156 °C.
In the case of `O=c1ccoc2cc(OCCn3ccnc3)ccc12`, the melting point is reported as 131 to 133 °C.
With `CC(=O)SCC(Cc1ccccc1)C(=O)Nc1ccc(C(=O)O)c(Cl)c1` (configuration not stated) the melting point was 145 to 148 °C.
Compound `CCCCOc1cc(C(=O)NCCN(CC)CC)cc(S(N)(=O)=O)c1Cc1ccccc1` has a melting point of 163 °C.
Compound `CCCC(C)(CC)C(=O)O[C@H]1C[C@H](O)C=C2C=C[C@H](C)[C@H](CC[C@@H]3C[C@@H](O)CC(=O)O3)[C@H]21` (some centres not stated) has a melting point of 126 to 128 °C.
`NC(=O)c1cccc(N)c1N` showed a melting point of 103 to 105 °C.
`COc1nc(N)c2ncn(C3OC(CO)C(O)C3O)c2n1` (configuration not stated) gave a melting point of 191 to 192 °C.
`COc1ccc(CNC(=O)c2cc([N+](=O)[O-])ccc2NC2CC=CCC2)cc1F` (configuration not stated) gave a melting point of 140 °C.
With `O=S(=O)(CS(=O)(=O)C1CCCCC1)C1CCCCC1` the melting point was 137 to 139 °C.
Compound `COc1ccc2c(c1)Sc1c(ccc(OC)c1C=O)N2C` has a melting point of 150 °C.
In the case of `Cc1nc(Br)cnc1NS(=O)(=O)c1cccc2c(N(C)C)cccc12`, the melting point is reported as 171 to 172 °C.
Compound `CS(=O)(=O)c1ccc(-c2cc(CBr)nn2CC2CCCCC2)cc1` has a melting point of 141 to 143 °C.
With `CCOC1=CC(=O)C(C(=O)OC)C(c2ccc(C)cc2)C1` (configuration not stated) the melting point was 124 to 127 °C.
With `Nc1nc(Cl)c2ncn(C3CC(F)C(CO)O3)c2n1` (configuration not stated) the melting point was 172 °C.
